Experimental data: patent US20170081324A1 (priority 2015, published 2017)
Like-named read-outs stand apart in the source and are kept apart here.

Key:
[1] = target: whole RNP complex (viral RNPs) of IAV strain A/PR/8/34 (Influenza A virus, UniProt P03428); assay: biochemical
[2] = tested on: influenza A virus (IAV) A/Aichi/2/68 (H3N2) on MDCK cells; assay: microbe, parasite or virus in culture; assay type: cell-based, influenza A virus A/Aichi/2/68 (H3N2); details: 48 h

Sequence of whole RNP complex (viral RNPs) of IAV strain A/PR/8/34 (P03428 whole entry, looked up, one chain of several): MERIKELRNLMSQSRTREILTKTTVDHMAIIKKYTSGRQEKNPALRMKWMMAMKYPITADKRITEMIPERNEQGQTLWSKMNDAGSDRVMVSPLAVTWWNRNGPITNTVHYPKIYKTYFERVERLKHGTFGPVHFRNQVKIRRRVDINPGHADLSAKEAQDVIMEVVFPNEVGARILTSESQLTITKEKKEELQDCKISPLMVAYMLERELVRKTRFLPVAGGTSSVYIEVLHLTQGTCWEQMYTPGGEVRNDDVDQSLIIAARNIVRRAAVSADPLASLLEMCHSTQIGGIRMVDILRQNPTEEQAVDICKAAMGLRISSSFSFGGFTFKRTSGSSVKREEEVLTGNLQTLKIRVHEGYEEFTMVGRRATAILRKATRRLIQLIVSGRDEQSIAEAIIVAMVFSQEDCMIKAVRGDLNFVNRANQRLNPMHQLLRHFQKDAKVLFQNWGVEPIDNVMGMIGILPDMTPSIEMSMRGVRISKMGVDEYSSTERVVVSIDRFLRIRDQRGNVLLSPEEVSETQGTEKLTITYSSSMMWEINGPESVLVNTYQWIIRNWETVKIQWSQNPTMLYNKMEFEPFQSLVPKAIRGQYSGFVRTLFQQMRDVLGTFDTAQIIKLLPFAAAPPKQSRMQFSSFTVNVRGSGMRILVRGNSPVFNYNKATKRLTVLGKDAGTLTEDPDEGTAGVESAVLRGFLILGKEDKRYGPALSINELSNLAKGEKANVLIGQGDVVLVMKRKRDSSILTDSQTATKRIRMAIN

Compound | IC50 [1] [µM] | IC50 ([2]; read-out: CPE IC50) [µM] | IC50 ([2]; read-out: CPE) [µM]
COC(=O)CCCCCNc1nc(-c2ccc3n[nH]c(=O)n3c2)ncc1F | > 33.3 | 39.3 | –
O=c1[nH]nc2ccc(-c3ncc(F)c(NC4CCCCC4)n3)cn12 | – | – | > 50
O=c1[nH]nc2ccc(-c3ncc(F)c(NCC4CC4)n3)cn12 | > 33.3 | – | > 50
COC(=O)CC(Nc1nc(-c2ccc3n[nH]c(=O)n3c2)ncc1F)C1CC1 (centres unmarked) | – | – | > 50
CC(C)[C@H](Nc1nc(-c2ccc3n[nH]c(=O)n3c2)ncc1F)C(=O)O | > 33.3 | – | > 50
O=C(O)CC(Nc1nc(-c2ccc3n[nH]c(=O)n3c2)ncc1F)C1CC1 (centres unmarked) | > 25 | – | > 50
CC(C)Nc1nc(-c2ccc3n[nH]c(=O)n3c2)ncc1F | 44.9 | – | > 50
COC(=O)[C@@H]1CCC[C@H](Nc2nc(-c3ccc4n[nH]c(=O)n4c3)ncc2F)C1 | > 33.3 | – | > 50
COC(=O)[C@@H](Nc1nc(-c2ccc3n[nH]c(=O)n3c2)ncc1F)C(C)C | – | 38.5 | –
O=C(O)[C@@H]1CCC[C@H](Nc2nc(-c3ccc4n[nH]c(=O)n4c3)ncc2F)C1 | 14.3 | – | > 50
CC(C)C(C)Nc1nc(-c2ccc3n[nH]c(=O)n3c2)ncc1F (centres unmarked) | 73.2 | – | > 50
COC(=O)C[C@@H](Nc1nc(-c2ccc3n[nH]c(=O)n3c2)ncc1F)C(C)C | – | – | > 50
O=C(N[C@@H]1CCC[C@H](Nc2nc(-c3cccc4n[nH]c(=O)n34)ncc2F)C1)N1CCCC1 [reference compound] | – | – | > 50
O=C(O)CCCCCNc1nc(-c2ccc3n[nH]c(=O)n3c2)ncc1F | 149 | > 100 | –
CNc1nc(-c2ccc3n[nH]c(=O)n3c2)ncc1F | > 33.3 | – | > 50
O=c1[nH]nc2ccc(-c3ncc(F)c(NCCO)n3)cn12 | – | – | > 50
O=C(N[C@@H]1CCC[C@H](Nc2nc(-c3ccc4n[nH]c(=O)n4c3)ncc2F)C1)N1CCCC1 | – | 9.1 | –
CC(C)[C@@H](CC(=O)O)Nc1nc(-c2ccc3n[nH]c(=O)n3c2)ncc1F | > 33.3 | – | > 50
